# “Also recorded” adds a separate entry of the source.
# Assays:
# [1] = system: mitochondria and lysosomes of C4-2B MDVR cells; test: Confocal microscopy of Mitotracker/Lysotracker staining (subcellular localization); format: cell-based, human
# Procedure: Subcellular localization (mitochondria, lysosomes) may be performed as follows: Uptake of DZ3a, THAD, controls or other dyes into mitochondria and lysosomes of cancer cells is determined by virtue of each compound constituting a dye or comprising a dye moiety. Cells are plated on live-cell imaging chambers (World Precision Instrument) overnight. Cells are exposed to the dyes at different concentrations, and dye uptake is evaluated by a Perkin-Elmer Ultraview ERS spinning disc confocal microscope mounted on a Zeiss Axiovert 200 m inverted microscope equipped with a 37° C. stage warmer, incubator, and constant CO2 perfusion. A 60× or 100× Zeiss oil objective (numerical aperture, 1.4) is used for live cell images, and a Z-stack is created using the attached piezoelectric z-stepper motor. The 633-nm laser line of an […] (set at 60% power) is used to excite the dye. Light emission at 650 nm is detected and found to correlate directly with the dye concentrations in the cells. For comparative studies, the exposure time and laser intensity are kept identical for accurate intensity measurements. Pixel intensity is quantified using Metamorph 6.1 (Universal Imaging), and the mean pixel intensity is generated as gray level using the Region Statistics feature on the software. […]
# MDVR cells = test: Monobromobimane (mBBr) staining, cellular GSH levels; format: cell-based, human; conditions: 8 h, listed as DZ-003
# Procedure: Example 5G: Cancer cells (here MDVR) are treated with DZ1, DHA and/or a THAD (e.g. 6 uM each) for 8 h, followed by monobromobimane (mBBr) staining at 40 uM for 30 min at 37° C., and analyzed with flow cytometry to determine the cellular GSH levels. Flow cytometry analysis of mBBr fluorescence (green) is performed as described in example 5E above. Preliminary experiments indicate that the THAD as described herein may provide a similar or increased effect.
# [2] = system: pATM, γH2AX, cytochrome c; test: Western blot analysis of DNA damage and mitochondrial markers; format: cell-based
# Procedure: The western blot analysis is performed as follows: Protein lysates (25 ug/sample) are separated by electrophoresis into the SDS-PAGE, which is then transferred to a nitrocellulose membrane for immunoblotting analysis. The protein membranes are blocked with 5% non-fat milk in PBS at room temperature (RT) for 1 h, followed by incubation with primary antibodies against proteins of interests diluted in 2% BSA in Phosphate Buffered Saline with Tween-20 (PBST) at 1:500 or 1:1000 at 4° C. overnight. The membranes are washed with PBST three times at 5 min for each wash on an orbital shaker, and then incubated with secondary antibodies against the species of the primary antibodies (i.e. anti-mouse or anti-rabbit) diluted in 5% non-fat milk in PBST for 1 h at RT with shaking. After the secondary antibody, the membranes are washed three times for 5 min each, and subjected to chemiluminescence imaging with ECL substrates (e.g. Pierce ECL Plus™, Thermo Fisher Scientific), to detect the protein bands of interest. Preliminary experiments indicate that the THAD as described herein may have an increased effect compared to DZ3a.
# C4-2 MDVR cells = test: JC-1 staining, mitochondrial membrane potential by flow cytometry; format: cell-based, human; conditions: 5 uM, 16 h
# Procedure: Example 5D: JC-1 staining and measuring JC-1 fluorescence is performed by flow cytometry to detect the ratio of green and red fluorescence. C4-2 MDVR cells are treated with vehicle (negative control), DHA (5 uM), and DZ-003 (5 uM) for 16 h, followed by JC-1 staining (2 uM) at 37° C. for 30 min, to determine the mitochondrial membrane potential by flow cytometry where JC-1 remains as a monomer in the cytosol that emits green fluorescence as an indication of depolarized membrane potential, and JC-1 forms aggregates in intact mitochondria that emits red fluorescence. […] Preliminary experiments indicate that the THAD as described herein may provide a similar or increased effect.
compound,measurement,setting,value
C[C@@H]1CC[C@H]2[C@@H](C)C(OC(=O)CCCCCN3/C(=C/C=C4\CCCC(/C=C/C5=[N+](CCCCS(=O)(=O)[O-])c6ccccc6C5(C)C)=C4Cl)C(C)(C)c4ccccc43)O[C@@H]3OC4(C)CC[C@@H]1[C@]32OO4 (stereo in doubt) [DZ3a],co-localization with mitochondria and lysosomes,[1],co-localizes with mitochondria and lysosomes; also recorded: exclusive targeting to mitochondria and lysosomes
same,cellular GSH levels (mBBr fluorescence),MDVR cells,decreases cellular antioxidant GSH levels; also recorded: Decreased cellular GSH levels
same,DNA damage (levels of pATM and γH2AX),[2],induces DNA damage
same,depletion of mitochondria (levels of cytochrome c),[2],depletes mitochondria
same,mitochondrial membrane potential (JC-1 fluorescence),C4-2 MDVR cells,induces depolarization of mitochondrial membrane potential

# — patent publication US20230226198A1, “Artemisinin Derivatives” (DA ZEN THERANOSTICS, INC., priority 2019, published 2023)
